Values quoted from earlier work, collected in patent publication US20220257541A1, “Lacosamide for the Treatment of ADD/ADHD” (priority 2019, published 2022).

Columns and labels:
[1] = test system: children who take methylphenidate; details: cited from earlier work
[2] = test system: voltage-gated sodium channels; details: cited from earlier work

Row | SMILES | proportion of children who develop symptoms of obsessive-compulsive behaviour [1] | mechanism of action [2]
1 | COC(=O)C(c1ccccc1)C1CCCCN1 (centres unmarked) [methylphenidate] | one third | –
2 | NC(=O)c1cn(Cc2c(F)cccc2F)nn1 [rufinamide, 1-[(2,6-difluorophenyl)methyl]-1H-1,2,3-triazole-4 carboxamide] | – | act through voltage-gated sodium channels
